Measured values reported in ChEMBL document CHEMBL3526130, “An evaluation of using rat-derived single-dose neuropharmacokinetic parameters to project accurately large animal unbound brain drug concentrations” (Drug Metab Dispos, 2012).

How the values were obtained:
[1] = Unbound fraction in Beagle dog plasma at 0.1 mg/kg, sc by LC-MS/MS analysis; format: ADME, organism-based, Canis lupus familiaris; set-up: dose 0.1 mg/kg, route subcutaneous
[2] = AUC(0 to 1 hr) in cynomolgus monkey plasma at 0.1 mg/kg, sc by LC-MS/MS analysis; format: ADME, organism-based, Macaca fascicularis; set-up: time < 1 hr, dose 0.1 mg/kg, route subcutaneous
[3] = Unbound fraction in cynomolgus monkey plasma at 0.1 mg/kg, sc by LC-MS/MS analysis; format: ADME, organism-based, Macaca fascicularis; set-up: dose 0.1 mg/kg, route subcutaneous
[4] = Ratio of unbound drug level in brain to plasma in Beagle dog at 0.1 mg/kg, sc by LC-MS/MS analysis; format: ADME, organism-based, Canis lupus familiaris; set-up: dose 0.1 mg/kg, route subcutaneous; conditions: brain and plasma
[5] = Unbound fraction in cynomolgus monkey brain at 0.1 mg/kg, sc by LC-MS/MS analysis; format: ADME, organism-based, Macaca fascicularis; set-up: dose 0.1 mg/kg, route subcutaneous
[6] = Ratio of unbound brain concentration to drug level in cerebrospinal fluid in Sprague-Dawley rat at 1 mg/kg, sc by LC-MS/MS analysis; format: ADME, organism-based; set-up: dose 1 mg/kg, route subcutaneous; conditions: in vivo
Nucleic Acid [7] = test: Ratio of drug level in cerebrospinal fluid to unbound plasma concentration in Sprague-Dawley rat at 1 mg/kg, sc by LC-MS/MS analysis; format: ADME, organism-based; set-up: dose 1 mg/kg, route subcutaneous; conditions: in vivo
[8] = AUC(0 to 2 hrs) in Sprague-Dawley rat brain at 1 mg/kg, sc by LC-MS/MS analysis; format: ADME, organism-based; set-up: time < 2 hr, dose 1 mg/kg, route subcutaneous
[9] = Ratio of drug level in brain to plasma in Beagle dog at 0.1 mg/kg, sc by LC-MS/MS analysis; format: ADME, organism-based, Canis lupus familiaris; set-up: dose 0.1 mg/kg, route subcutaneous; conditions: brain and plasma, read-out: BPR
[10] = AUC(0 to 2 hrs) in Sprague-Dawley rat plasma at 1 mg/kg, sc by LC-MS/MS analysis; format: ADME, organism-based; set-up: time < 2 hr, dose 1 mg/kg, route subcutaneous
[11] = AUC(0 to 1 hr) in cynomolgus monkey brain at 0.1 mg/kg, sc by LC-MS/MS analysis; format: ADME, organism-based, Macaca fascicularis; set-up: time < 1 hr, dose 0.1 mg/kg, route subcutaneous
[12] = Ratio of unbound drug level in brain to plasma in cynomolgus monkey at 0.1 mg/kg, sc by LC-MS/MS analysis; format: ADME, organism-based, Macaca fascicularis; set-up: dose 0.1 mg/kg, route subcutaneous; conditions: brain and plasma
[13] = AUC(0 to 2 hrs) in Beagle dog cerebrospinal fluid at 0.1 mg/kg, sc by LC-MS/MS analysis; format: ADME, organism-based, Canis lupus familiaris; set-up: time < 2 hr, dose 0.1 mg/kg, route subcutaneous
[14] = AUC(0 to 1 hr) in cynomolgus monkey cerebrospinal fluid at 0.1 mg/kg, sc by LC-MS/MS analysis; format: ADME, organism-based, Macaca fascicularis; set-up: time < 1 hr, dose 0.1 mg/kg, route subcutaneous
[15] = AUC(0 to 2 hrs) in Beagle dog plasma at 0.1 mg/kg, sc by LC-MS/MS analysis; format: ADME, organism-based, Canis lupus familiaris; set-up: time < 2 hr, dose 0.1 mg/kg, route subcutaneous
[16] = Ratio of drug level in brain to plasma in cynomolgus monkey at 0.1 mg/kg, sc by LC-MS/MS analysis; format: ADME, organism-based, Macaca fascicularis; set-up: dose 0.1 mg/kg, route subcutaneous; conditions: brain and plasma, read-out: BPR
[17] = Unbound fraction in Beagle dog brain at 0.1 mg/kg, sc by LC-MS/MS analysis
[18] = Ratio of unbound drug level in brain to plasma in Sprague-Dawley rat at 1 mg/kg, sc by LC-MS/MS analysis; format: ADME, organism-based; set-up: dose 1 mg/kg, route subcutaneous
[19] = AUC(0 to infinity) in Sprague-Dawley rat plasma at 1 mg/kg, sc by LC-MS/MS analysis; format: ADME, organism-based; set-up: time infinity, dose 1 mg/kg, route subcutaneous
[20] = AUC(0 to infinity) in Sprague-Dawley rat brain at 1 mg/kg, sc by LC-MS/MS analysis; format: ADME, organism-based; set-up: time infinity, dose 1 mg/kg, route subcutaneous
[21] = Ratio of unbound brain concentration to drug level in cerebrospinal fluid in Beagle dog at 0.1 mg/kg, sc by LC-MS/MS analysis; format: ADME, organism-based, Canis lupus familiaris; set-up: dose 0.1 mg/kg, route subcutaneous; conditions: in vivo
[22] = AUC(0 to 2 hrs) in Sprague-Dawley rat cerebrospinal fluid at 1 mg/kg, sc by LC-MS/MS analysis; format: ADME, organism-based; set-up: time < 2 hr, dose 1 mg/kg, route subcutaneous
[23] = Ratio of unbound brain concentration to drug level in cerebrospinal fluid in cynomolgus monkey at 0.1 mg/kg, sc by LC-MS/MS analysis; format: ADME, organism-based, Macaca fascicularis; set-up: dose 0.1 mg/kg, route subcutaneous; conditions: in vivo
[24] = AUC(0 to 2 hrs) in Beagle dog brain at 0.1 mg/kg, sc by LC-MS/MS analysis; format: ADME, organism-based, Canis lupus familiaris; set-up: time < 2 hr, dose 0.1 mg/kg, route subcutaneous
Nucleic Acid [25] = test: Ratio of drug level in cerebrospinal fluid to unbound plasma concentration in cynomolgus monkey at 0.1 mg/kg, sc by LC-MS/MS analysis; format: ADME, organism-based, Macaca fascicularis; set-up: dose 0.1 mg/kg, route subcutaneous; conditions: in vivo
[26] = Ratio of drug level in brain to plasma in Sprague-Dawley rat at 1 mg/kg, sc by LC-MS/MS analysis; format: ADME, organism-based; set-up: dose 1 mg/kg, route subcutaneous; conditions: read-out: BPR
[27] = AUC(0 to infinity) in Sprague-Dawley rat cerebrospinal fluid at 1 mg/kg, sc by LC-MS/MS analysis; format: ADME, organism-based; set-up: time infinity, dose 1 mg/kg, route subcutaneous
[28] = AUC(0 to 7 hrs) in Sprague-Dawley rat brain at 0.2 mg/kg, sc by LC-MS/MS analysis; format: ADME, organism-based; set-up: time < 7 hr, dose 0.2 mg/kg, route subcutaneous
[29] = AUC(0 to 7 hrs) in Sprague-Dawley rat cerebrospinal fluid at 0.2 mg/kg, sc by LC-MS/MS analysis; format: ADME, organism-based; set-up: time < 7 hr, dose 0.2 mg/kg, route subcutaneous
[30] = AUC(0 to infinity) in Sprague-Dawley rat cerebrospinal fluid at 0.2 mg/kg, sc by LC-MS/MS analysis; format: ADME, organism-based; set-up: time infinity, dose 0.2 mg/kg, route subcutaneous
[31] = AUC(0 to 7 hrs) in Sprague-Dawley rat plasma at 0.2 mg/kg, sc by LC-MS/MS analysis; format: ADME, organism-based; set-up: time < 7 hr, dose 0.2 mg/kg, route subcutaneous
[32] = AUC(0 to infinity) in Sprague-Dawley rat brain at 0.2 mg/kg, sc by LC-MS/MS analysis; format: ADME, organism-based; set-up: time infinity, dose 0.2 mg/kg, route subcutaneous
[33] = AUC(0 to infinity) in Sprague-Dawley rat plasma at 0.2 mg/kg, sc by LC-MS/MS analysis; format: ADME, organism-based; set-up: dose 0.2 mg/kg, route subcutaneous, time infinity

Cc1nc2n(c(=O)c1CCN1CCC(c3noc4cc(F)ccc34)CC1)CCCC2 [RISPERIDONE]
fraction unbound [1]: 0.083 | AUC(0-t) at 1 h [2]: 27.6 ng·h/mL | fraction unbound [3]: 0.084 | Kp uu [4]: 0.99 | fraction unbound [5]: 0.0919 | Ratio [6]: 0.67 | Ratio (Nucleic Acid [7]): 0.35 | AUC(0-t) at 2 h [8]: 108 ng·h/mL | Kp [9]: 1.01 | AUC(0-t) at 2 h [10]: 409 ng·h/mL | AUC(0-t) at 1 h [11]: 22.6 ng·h/mL | Kp uu [12]: 0.89 | AUC(0-t) at 2 h [13]: 3.48 ng·h/mL | AUC(0-t) at 1 h [14]: 1.14 ng·h/mL | AUC(0-t) at 2 h [15]: 71.2 ng·h/mL | Kp [16]: 0.82 | fraction unbound [17]: 0.0809 | Kp uu [18]: 0.23 | AUC(0-inf) [19]: 441 ng·h/mL | AUC(0-inf) [20]: 130 ng·h/mL | Ratio [21]: 1.67 | AUC(0-t) at 2 h [22]: 11.3 ng·h/mL | Ratio [23]: 1.82 | AUC(0-t) at 2 h [24]: 72 ng·h/mL | Ratio (Nucleic Acid [25]): 0.49 | Kp [26]: 0.26 | AUC(0-inf) [27]: 11.9 ng·h/mL

CCCC(C)C1(CC)C(=O)NC(=S)NC1=O (stereo not drawn) [THIOPENTAL]
AUC(0-t) at 7 h [28]: 209 ng·h/mL | AUC(0-t) at 7 h [29]: 16.4 ng·h/mL | AUC(0-inf) [30]: 16.6 ng·h/mL | AUC(0-t) at 7 h [31]: 216 ng·h/mL | AUC(0-inf) [32]: 215 ng·h/mL | AUC(0-inf) [33]: 244 ng·h/mL
